Laboratory results: patent US20050004029A1, “Methods and compositions for treating vascular leak using hepatocyte growth factor” (priority 2001, published 2005)

Key:
[1] = test system: Human pulmonary artery endothelial cells; assay: Transendothelial electrical resistance (TER) of human pulmonary artery endothelial cell monolayers; type: cell-based; details: then HGF 20 ng/ml; for effect on HGF-induced increases in TER, in words: pretreatment LY294002 25 μM, UO126 10 μM, SB203580 20 μM, Ro-31-2880 10 μM
Method: (§1) Bovine pulmonary artery endothelial cells were purchased from the American Type Culture Collection (ATCC®, Rockville, Md.) and utilized at passage 19-24. Cells were maintained in Medium 199 (Life Technologies, Rockville, Md.) supplemented with 20% (v/v) colostrum-free bovine serum (CFBS) (Irvine Scientific, Santa Ana, Calif.), 15 μg/ml endothelial cell growth supplement (Upstate Biotechnology, Lake Placid, N.Y.), 1% antibiotic and antimycotic, and 0.1 mM non-essential amino acids (Life Technologies). Human pulmonary artery endothelial cells were purchased from Clonetics (Walkersville, Md.), cultured in EBM-2 complete medium (Clonetics) and utilized at passage 5-10. Human alveolar epithelial cells (A549) were purchased from ATCC® and cultured in the same medium as the bovine endothelial cells, except that the endothelial cell growth supplement was omitted. All cells were maintained at 37° C. in a humidified atmosphere of 5% CO2 and 95% air. Both endothelial cell types grew to contact-inhibited monolayers with the typical cobblestone morphology (Garcia, J. G. N. et al. (1995) J. Cell. Physiol. 163:510-522; Liu, F. et al. (2001) Am. J. Respir. Cell. Mol. Biol. 24:711-719).
Electrical resistance of EC monolayers was measured using electrical cell impedance sensor system (Applied Biophysics Inc., Troy, N.Y.) as described in Garcia, J. G. N. et al. (2000) J. Appl. Physiol. 89:2333-2343. Cells grown on gold microelectrodes (10^−3 cm^2) in polycarbonate wells act as insulating particles, and the resistance across the monolayers (transendothelial electrical resistance, or TER) is measured in real time. As cells adhere on the microelectrode and intercellular cell contacts are formed or in response to agents which increase junctional integrity, the TER increases (Garcia, J. G. N. et al. (2001) J. Clin. Invest. 108:689-711). In contrast, cell retraction, rounding, or loss of adhesion is reflected by decreases in TER (Garcia, J. G. N. et al. (2000) J. Appl. Physiol. 89:2333-2343). These measurements provide a highly sensitive biophysical assay that indicates the state of cell shape, focal adhesion, and endothelial barrier function (Giaever, I. and Keese, C. R. (1993) Nature 366:591-592; Tiruppathi, C. et al. (1992) Proc. Natl. Acad. Sci. USA 89:7919-7923). All electrical resistance data are presented as normalized values. Briefly, current was applied across the electrodes by a 4000 Hz AC voltage source with an amplitude of 1 V in series with a 1 MΩ resistance to approximate a constant current source (−1 μA). The small gold electrode and the larger counter electrode (1 cm^2) were connected to a phase-sensitive lock-in amplifier (5301A; EG&G Instruments Corp, Princeton, N.J.) with a built in differential preamplifier (5316A; EG&G Instruments Corp.). The in-phase and out-of-phase voltages between the electrodes were monitored in real time with the lock-in amplifier and converted to scalar measurements of transendothelial impedance, of which resistance was the primary focus. Transendothelial electrical resistance was monitored for 30 min to establish a baseline resistance (Ro) which, for human lung endothelium, was typically between 8 to 12×10^3 Ω (wells with R0<7×10^3 Ω or R0 >15×10^3 Ω were rejected). For some experiments, total TER was vectorially resolved into components reflecting resistance to current flow beneath the cell layer (α) and resistance to current flow between adjacent cells (Rb) as described in Garcia et al. (2000) supra utilizing the method of Giaiver and Keese which models the endothelial monolayer mathematically (Giaever, I. and Keese, C. R. (1993) Nature 366:591-592). Thus, changes in α reflect alterations in the net state of cell-matrix adhesion, whereas changes in Rb reflect alterations in the integrity of cell-cell adhesion. TER values from each microelectrode were pooled at discrete time points and plotted versus time as the mean±standard error of the mean (Garcia et al. (2000) supra). […]

[2] = test system: human endothelial monolayers; assay: F-actin immunofluorescent microscopy (cortical actin ring); type: cell-based; details: LY294002 25 μM, 1 hr or SB203580 20 μM, 30 min; HGF 20 ng/ml
Method: Endothelial cell monolayers grown on gelatinized cover slips were rinsed with M199 and incubated with agonists in the same medium in a 37° C. incubator (5% CO2). Monolayers were then rinsed with PBS (3×2 min), fixed in 4% paraformaldehyde for 10 min, again rinsed with PBS (3×2 min), and permeabilized with 0.25% Triton X-100 for 5 min. Cells were then washed briefly with PBS (3×2 min), blocked with PBS containing 2% BSA for 30 min and incubated with 1 Unit/mL of Texas Red-X phalloidin (Molecular Probes, Eugene, Oreg.), β-catenin antibody (Transduction Laboratories, Lexington, Ky.), glycogen synthase kinase-3 β (GSK-3β) (Santa Cruz Biotechnology, Inc., Santa Cruz, Calif.), or mono-phosphorylated MLC antisera (see Garcia, J. G. N. et al. (2001) J. Clin. Invest. 108:689-711) for 1 hr. After washing with PBS (3×2 min), cover slips were mounted on slides using SlowFade mounting medium (Molecular Probes). Cells were analyzed using a 60× oil objective on a Nikon Eclipse TE 300 microscope. Images were captured by Sony Digital Photo camera DKC 5000. […]
The effect of HGF on the spatial localization of polymerized actin in human endothelial monolayers was investigated by immunofluorescent microscopy. […] F-actin staining was assessed with Texas red phalloidin and myosin light chain staining evaluated with anti-monophosphorylated myosin light chain polyclonal antibody.

[3] = test system: p42/44 ERK; assay: p42/44 ERK activation by phospho-specific immunoblotting; type: cell-based, human; details: UO126 10 μM, 30 min; HGF 20 ng/ml, 15 min
Method: Endothelial cell monolayers grown to confluence in 12-well plates and challenged with HGF were lysed with 100 μl of 2×SDS sample buffer, and cell lysates were transferred into microcentrifuge tubes and boiled for 5 min. After a brief spin, proteins from 10 μl cell lysates were separated on 12% SDS-PAGE and transferred to nitrocellulose (Schleicher & Schuell, Keene, N.H.) (30V, 18 h). After blocking with PBST (PBS with 0.1% Tween 20) containing 5% non-fat milk for 1 hr, nitrocellulose blots were reacted with primary antibodies diluted in PBST containing 5% BSA for 1 hr, washed with PBST (3×10 min), incubated with peroxidase-conjugated secondary antibodies (goat anti-rabbit IgG, 1:10,000 dilution, Sigma; or goat anti-mouse IgG, 1:10,000 dilution, Bio-Rad Labs, Richmond, Calif.) diluted in PBST with 5% non-fat milk for 1 hr and again washed with PBST (3×10 min). Finally, immunoreactive proteins were detected using ECL. The relative intensities of the protein bands were quantified by scanning densitometry.
The MAP family of kinases (ERK1/2 and p38) are actively involved in agonist-induced endothelial cell actin reorganization and barrier regulation (Verin, A. D. et al. (2000) Am. J. Physiol: Lung Cell Molec. Phys. 279:L360-L370, 2000; Garcia, J. G. N. et al. (2001) J. Clin. Invest. 108:689-711) and have been noted to participate in HGF-mediated cell activation (Liang, C. C. and Chen, H. C. (2001) J. Biol. Chem. 276:21146-21152). These reports were confirmed in human endothelial cell monolayers incubated with HGF (20 ng/ml, for 1, 2, 5, 10, 15, 20, 30, 60, or 120 min) where activation of p42/44 ERK and p38 MAPK by HGF was detected by immunoblotting with antibodies that only recognize the phosphorylated (activated) forms of ERK or p38 MAPK. The activation of ERKs was evident at 5 min, maximal after 10-15 min with a gradual decline thereafter, but remaining sustained above basal levels for more than 2 hrs. […] The onset of HGF-mediated activation of p38 MAPK was similar to ERK, with plateau at 10-15 min. However, the duration of this response was much more truncated than ERK activation, beginning to decline by 20 min and returning to basal value by 1 hr.

[4] = test system: Bovine Pulmonary Artery Endothelium; assay: Transendothelial electrical resistance (TER) across bovine pulmonary artery endothelium; type: cell-based; details: VEGF 100 ng/ml, Sph 1-P 1 μM, HGF 20 ng/ml; for TER response in words: thrombin, 10-60 min; for changes in TER 30 min / changes in TER 60 min / changes in TER 10 min: vs vehicle control, ±SEM, thrombin 100 μM; for changes in TER 10 min: (+) increased, (−) decreased
Method: as §1, with “air.” for “air. Both endothelial cell types grew to contact-inhibited monolayers with the typical cobblestone morphology (Garcia, J. G. N. et al. (1995) J. Cell. Physiol. 163:510-522; Liu, F. et al. (2001) Am. J. Respir. Cell. Mol. Biol. 24:711-719).”
Electrical resistance of EC monolayers was measured using electrical cell impedance sensor system (Applied Biophysics Inc., Troy, N.Y.) as described in Garcia, J. G. N. et al. (2000) J. Appl. Physiol. 89:2333-2343. Cells grown on gold microelectrodes (10^−3 cm^2) in polycarbonate wells act as insulating particles, and the resistance across the monolayers (transendothelial electrical resistance, or TER) is measured in real time. As cells adhere on the microelectrode and intercellular cell contacts are formed or in response to agents which increase junctional integrity, the TER increases (Garcia, J. G. N. et al. (2001) J. Clin. Invest. 108:689-711). In contrast, cell retraction, rounding, or loss of adhesion is reflected by decreases in TER (Garcia, J. G. N. et al. (2000) J. Appl. Physiol. 89:2333-2343). These measurements provide a highly sensitive biophysical assay that indicates the state of cell shape, focal adhesion, and endothelial barrier function (Giaever, I. and Keese, C. R. (1993) Nature 366:591-592; Tiruppathi, C. et al. (1992) Proc. Natl. Acad. Sci. USA 89:7919-7923). All electrical resistance data are presented as normalized values. Briefly, current was applied across the electrodes by a 4000 Hz AC voltage source with an amplitude of 1 V in series with a 1 MΩ resistance to approximate a constant current source (−1 μA). The small gold electrode and the larger counter electrode (1 cm^2) were connected to a phase-sensitive lock-in amplifier (5301A; EG&G Instruments Corp, Princeton, N.J.) with a built in differential preamplifier (5316A; EG&G Instruments Corp.). The in-phase and out-of-phase voltages between the electrodes were monitored in real time with the lock-in amplifier and converted to scalar measurements of transendothelial impedance, of which resistance was the primary focus. […] For some experiments, total TER was vectorially resolved into components reflecting resistance to current flow beneath the cell layer (α) and resistance to current flow between adjacent cells (Rb) as described in Garcia et al. (2000) supra utilizing the method of Giaiver and Keese which models the endothelial monolayer mathematically (Giaever, I. and Keese, C. R. (1993) Nature 366:591-592). Thus, changes in α reflect alterations in the net state of cell-matrix adhesion, whereas changes in Rb reflect alterations in the integrity of cell-cell adhesion. TER values from each microelectrode were pooled at discrete time points and plotted versus time as the mean±standard error of the mean (Garcia et al. (2000) supra).

Compound	effect on HGF-induced increases in TER, in words [1]	TER response in words [4]	changes in TER 30 min [4]	changes in TER 60 min [4] [%]	changes in TER 10 min [4]	also measured
O=c1cc(N2CCOCC2)oc2c(-c3ccccc3)cccc12 [LY294002, reference compound]						reduction of HGF-induced increase in TER ([1]; inhibitor pretreatment (LY294002 25 μM; Ro-31-2880 10 μM)): > 50%
C[S+]([O-])c1ccc(-c2nc(-c3ccncc3)c(-c3ccc(F)cc3)[nH]2)cc1 (stereo not shown) [SB203580, reference compound]	significantly blocked					effect on HGF-elicited cortical actin ring formation / actin remodeling [2]: significantly attenuated
N#CC(=C(/N)Sc1ccccc1N)/C(C#N)=C(/N)Sc1ccccc1N [UO126, reference compound]	significantly blocked					effect on HGF-stimulated ERK activity [3]: completely abolished
Thrombin		rapidly decreases TER values which begin to abate after 30 min	−50 ± 4%	−14 ± 4	+30 ± 3%	
VEGF		early increase in TER, which then falls to produce mild barrier dysfunction	0% ± 3%	−20 ± 4	+30 ± 4%	
